Laboratory results published in patent publication US20090275608A1, “Methods of diagnosing and treating parp-mediated diseases” (BiPar Sciences, Inc., priority 2008, published 2009).
“Also recorded” adds a separate entry of the source.

What was measured:
[1] = tested on: MDA-MB-468 cells; assay: FACS cell cycle analysis (PI DNA content), Compound III with IGF1R inhibitor; assay type: cell-based, human; conditions: for G1 / G2/M / S / Sub-G1: MDA-MB-468
Method: (§1) The effects of Compound III and its nitroso metabolite on the cell cycle in cancer cell lines in combination with second agents were determined.
(§2) Compound III and Compound III-1 compounds were tested in the presence of the second agent according the schedule indicated in the Table below.
(§3) Cell Culture: Triple negative MDA-MB-468 human breast carcinoma, U251 human glioblastoma and lung adenocarcinoma HCC827 cells were cultured in Dulbecco Modified Eagle Medium with 10% fetal bovine serum. Cells were plated at a seeding density 10^5 per P100 or at 10^4 per P60 in growth media and incubated 12-18 h at 37° C., 5% CO2. Compounds with and without secondary agent (see Table 1) were added as a single dose for 72 hours. DMSO was used as a control. Following treatment, cells were analyzed with BrdU ELISA Assay (Roche Applied Science), FACS based cell cycle assay or TUNEL.
(§4) Compounds: Compound III was dissolved directly from dry powder in DMSO (cat #472301, Sigma-Aldrich) for each separate experiment, then the entire volume of the stock solution was used to prepare 111 nM, 313 nM and 1 μM working concentrations in cell culture medium to avoid any possibility of precipitation and the corresponding loss of compound.
(§5) PI Exclusion, Cell Cycle and TUNEL Assays (FACS): After the addition of drugs and incubation, cells were taken for counting and PI (Propidium Iodide) exclusion assay. One part of the cells was centrifuged and resuspended in 0.5 ml ice-cold PBS containing 5 μg/ml of PI. The other part of the cells was fixed in ice-cold 70% ethanol and stored in a freezer overnight. For cell cycle analysis, cells were stained with propidium iodide (PI) using standard procedures. Cellular DNA content was determined by flow cytometry using BD LSRII FACS, and the percentages of cells in G1, S or G2/M were determined using ModFit software.

[2] = tested on: HCC827 cells; assay: FACS cell cycle analysis (PI DNA content), Compound III with EGFR inhibitor; assay type: cell-based, human
Method: as §1, §2, §3, §4, §5

[3] = tested on: OVCAR-3 xenograft; assay: human ovarian adenocarcinoma OVCAR-3 xenograft model of cancer; assay type: in vivo, mice
Description: Xenograft cancer models can be employed to measure the effects of treatment of PARP and co-regulated gene modulators on cancer growth and progression.
Moreover, ovarian adenocarcinoma OVCAR-3 cells produce IGF-I and IGF-II, and express IGF1R, supporting the existence of an autocrine loop.

[4] = tested on: HCC827 cells; assay: TUNEL apoptosis assay (FACS), Compound III with EGFR inhibitor; assay type: cell-based, human; conditions: GFT 2 nM + 201 0 μM
Method: as §3, §4
(§6) To detect apoptosis, the cells were labeled with the “In Situ Cell Death Detection Kit, Fluorescein” (Roche Diagnostics Corporation, Roche Applied Science, Indianapolis, Ind.). […] All cell samples were analyzed with a BD LSR II (BD Biosciences, San Jose, Calif.). […]

[5] = tested on: OVCAR-3 cells; conditions: OVCAR-3 cell line, Gotlieb et al., 2006; cited from earlier work
[6] = tested on: OVCAR-3 xenograft; conditions: previous studies, Gotlieb et al., 2006; cited from earlier work
[7] = tested on: OVCAR-4 cells; conditions: OVCAR-4 cell line, Gotlieb et al., 2006; cited from earlier work
[8] = tested on: NFκB; conditions: multiple myeloma cells, Hideshima et al., 2002; cited from earlier work
[9] = tested on: MDA-MB-468 cells; assay: BrdU labeling assay (FACS / ELISA), Compound III with IGF1R inhibitor; assay type: cell-based, human
Method: as §3, §4
Bromodeoxyuridine (BrdU) labeling assay and FACS-based cell cycle analysis: 50 μl of BrdU (Sigma Chemical Co., St. Louis, Mo.) stock solution (1 mM) was added to achieve final concentration of 10 μM BrdU. Then cells were incubated for 30 min at 37° C. and fixed in ice-cold 70% ethanol and stored at 4° C. overnight. […] All cell samples were analyzed with a BD LSR II (BD Biosciences, San Jose, Calif.). […]

[10] = tested on: MDA-MB-468 cells; assay: cell counting and PI exclusion assay (cell survival), Compound III with IGF1R inhibitor; assay type: cell-based, human
Method: as §3, §4
as §5, with “The other part of the cells was fixed in ice-cold 70% ethanol and stored in a freezer overnight. For cell cycle analysis, cells were stained with propidium iodide (PI) using standard procedures.” left out

[11] = tested on: MDA-MB-468 cells; assay: TUNEL apoptosis assay (FACS), Compound III with IGF1R inhibitor; assay type: cell-based, human
Method: as §3, §4, §6

[12] = tested on: NF-κB; conditions: HeLa cells; cited from earlier work

NC(=O)c1ccc(I)c([N+](=O)[O-])c1 [Compound III]
potentiation of the activity of IGF-1R inhibitor Picropodophyllin (PPP) ([1]; triple negative breast cancer cells MDA-MB-468, FIG. 19): potentiates the activity of IGF-1R inhibitor Picropodophyllin (PPP) | potentiation of the activity of the EGF-R inhibitor IRESSA ([2]; HCC827 cell line): potentiate the activity of the EGF-R inhibitor IRESSA® | tumor growth, combination of PARP inhibitor and IGF1R inhibitor ([3]; Compound III combined with NVP-AEW541, expected from the single-agent data): inhibit tumor growth in mice even further | survival of mice ([3]; OVCAR-3 xenograft, FIG. 18): improve survival of mice; also recorded: improval of survival of mice | tumor growth ([3]; PARP1 inhibition by Compound III, OVCAR-3 xenograft in mice, FIG. 18): inhibit tumor growth

COc1cc2ncnc(Nc3ccc(F)c(Cl)c3)c2cc1OCCCN1CCOCC1 [GFT]
TUNEL(+) [4]: 6.2 | G1 ([2]; HCC827, GFT 2 nM + 201 0 μM): 51.0 | G2/M ([2]; HCC827, GFT 2 nM + 201 0 μM): 9.2 | S ([2]; HCC827, GFT 2 nM + 201 0 μM): 34.4 | Sub-G1 ([2]; HCC827, GFT 2 nM + 201 0 μM): 3.4

Nc1ncnc2c1c(-c1cccc(OCc3ccccc3)c1)cn2C1CC(CN2CCC2)C1 (stereo not shown) [NVP-AEW541]
growth of the cells [5]: inhibited growth of the cells | growth of OVCAR-3 tumor [6]: can inhibit growth of OVCAR-3 tumor | growth of the cells [7]: inhibited growth of the cells

O=C(Nc1cc(Cl)cc2c1[nH]c1cnccc12)c1cccnc1 [PS-1145]
NFκB activation [8]: blocked NFκB activation

COc1cc([C@@H]2c3cc4c(cc3[C@H](O)[C@H]3COC(=O)[C@@H]23)OCO4)cc(OC)c1OC [Picropodophyllin]
BrdU(−) S ([9]; PPP 200 nM + 201 0 uM): 2.13 | BrdU(−) S ([9]; PPP 400 nM + 201 0 uM): 9.45 | G1 ([1]; PPP 200 nM + 201 0 uM): 51.42 | G2/M ([1]; PPP 200 nM + 201 0 uM): 15.01 | S ([1]; PPP 200 nM + 201 0 uM): 30.22 | Sub-G1 ([1]; PPP 200 nM + 201 0 uM): 1.22 | G1 ([1]; PPP 400 nM + 201 0 uM): 37.29 | G2/M ([1]; PPP 400 nM + 201 0 uM): 20.17 | S ([1]; PPP 400 nM + 201 0 uM): 25.32 | Sub-G1 ([1]; PPP 400 nM + 201 0 uM): 7.77 | Vital Cell ([10]; PPP 200 nM + 201 0 uM): 89 | Vital Cell ([10]; PPP 400 nM + 201 0 uM): 60 | TUNEL(+) ([11]; PPP 200 nM + 201 0 uM): 0.9 | TUNEL(+) ([11]; PPP 400 nM + 201 0 uM): 4.1

CCc1c2c(nc3ccc(O)cc13)-c1cc3c(c(=O)n1C2)COC(=O)[C@]3(O)CC [SN38, 7-ethyl-10-hydroxycamptothecin]
NF-κB nuclear translocation and activation of NF-κB target genes [12]: induce NF-κB nuclear translocation and activation of NF-κB target genes

CC(C)C[C@H](NC(=O)[C@H](Cc1ccccc1)NC(=O)c1cnccn1)B(O)O [bortezomib]
NFκB activation [8]: blocked NFκB activation

COc1cccc2c1C(=O)c1c(O)c3c(c(O)c1C2=O)C[C@@](O)(C(=O)CO)C[C@@H]3O[C@H]1C[C@H](N)[C@H](O)[C@H](C)O1 [doxorubicin]
NF-κB nuclear translocation and activation of NF-κB target genes [12]: induce NF-κB nuclear translocation and activation of NF-κB target genes
